Where a name gives a salt, the structure may show the parent alone.
Tests used:
patients with NSF [1] = assay: Skin involvement by modified Rodnan skin score (mRSS) in treated NSF patients; assay type: in vivo, human
Description: (§1) Two patients diagnosed with NSF that was associated with gadolinium exposure were assessed and treated with orally administered imatinib mesylate over an extended period of time. Their progress was assessed as were any side effects of the treatment.
They were offered treatment with imatinib mesylate. […] Shortly thereafter, […] PD catheter stopped functioning and they began to undergo HD.
To determine whether a higher dose of IM might yield further improvement in their skin changes, their daily dose was increased from 400 mg to 600 mg at the end of January 2007. Because of a hospitalization in February 2007, for evaluation and treatment of chronic gastrointestinal bleeding, they stopped taking IM for 2 weeks. They resumed taking daily oral IM 600 mg, one week later, but they again stopped taking it after 6 days, when they underwent elective surgical repair of an abdominal hernia. They once again resumed taking oral IM 400 mg daily in May 2007. However, because of difficulty controlling their INR, they discontinued IM two weeks later. Off of IM, their Coumadin anticoagulation has been managed more easily.
Skin involvement was assessed using the modified version of the Rodnan skin score (mRSS). The same examiner evaluated each patient at each visit. Seventeen skin sites were evaluated: the face, upper arms, […], dorsum of the hands, fingers, chest, abdomen, thighs, […], and feet. Each site was graded: 0=normal skin, 1=thickened skin, 2=thickened and unable to pinch, or 3=thickened and unable to move. The maximum total score is 51.

patients with NSF [2] = assay: Knee joint flexion contracture measured with a goniometer in treated NSF patients; assay type: in vivo, human
Description: as §1
Loss of knee joint extension (flexion contracture) was assessed by measuring maximal passive knee extension, with the patient in a supine position, using a goniometer. The center of the goniometer was placed at the lateral femoral condyle, with the proximal arm positioned along the longitudinal axis of the femur and the distal arm aligned with the long axis of the tibia. Measurements were rounded to the nearest multiple of 5 degrees. Although flexion contractures appeared symmetric in both patients, the knee with the greater flexion contracture at baseline was assessed for change at subsequent visit.

patients with NSF [3] = assay: Adverse effects in the two treated NSF patients; assay type: in vivo, human; conditions: both patients
Description: as §1
Patient 1 developed gastrointestinal upset that resolved when corticosteroid replacement with 7.5 mg/day oral prednisone was initiated to treat adrenal insufficiency 17 weeks after re-initiation of IM, despite continuation of IM.

patients with NSF [4] = assay: Skin biopsy histology before and after IM (hematoxylin & eosin, type I procollagen staining); assay type: in vivo, human
Description: FIG. 2 (A and B) are photographs of skin biopsies from Patient 1 before (FIG. 2A) and after 15 weeks (FIG. 2B) of treatment with IM, at similar magnification and under equivalent lighting. […] (hematoxylin & eosin staining, 12.5× total magnification). The grey line in each panel identifies the level of the eccrine ducts, structures that occur at a relatively uniform depth in a particular region of the body.
FIG. 3 (A and B) are photographs of skin biopsies from Patient 1 before (FIG. 3A) and after 15 weeks (FIG. 3B) of treatment with IM, at similar magnification and under equivalent lighting. […] (type I procollagen immunohistochemical staining, 12.5× magnification) The grey line in each panel identifies the level of the eccrine ducts.
Skin biopsies performed both before and after initial dosing of Patient 1 with IM were compared. Both specimens were obtained from the same anatomic area, with the second biopsy taken immediately adjacent to the resolved scar from the prior procedure, but each biopsy had been performed using different technique (The first biopsy was an excisional biopsy, the second was a punch biopsy). […] Furthermore, in the specimen obtained after IM treatment, fewer type I procollagen^+ cells were present in the upper dermis (FIG. 3B). The second biopsy contained 124 ppm (μg/g, dry weight) of gadolinium, essentially unchanged from that of the pretreatment biopsy (High et al.: Gadolinium is quantifiable within the tissue of patients with nephrogenic systemic fibrosis, J Am Acad Dermatol 2007).

patients with NSF [5] = conditions: two patients; cited from earlier work

Row | SMILES | mRSS (patients with NSF [1]; Patient 1, after oral IM 400 mg daily over 15 weeks) | mRSS (patients with NSF [1]; Patient 1, after subsequent 9 weeks without IM) | mRSS (patients with NSF [1]; Patient 1, baseline before oral IM 400 mg daily, maximum total score 51) | mRSS (patients with NSF [1]; Patient 1, within 5 weeks of resuming oral IM 400 mg daily (from 33)) | mRSS (patients with NSF [1]; Patient 2, baseline before oral IM 400 mg daily) | mRSS (patients with NSF [1]; Patient 2, while taking oral IM 400 mg daily) | mRSS (patients with NSF [1]; Patient 2, within 5 weeks of stopping IM) | knee joint flexion contractures (patients with NSF [2]; Patient 1, off IM for 9 weeks, both knees) | knee joint flexion contractures (patients with NSF [2]; Patient 1, week 6 of IM, with physical therapy) | knee joint flexion contractures (patients with NSF [2]; Patient 1, week 15 of IM, with physical therapy) | knee joint flexion contractures (patients with NSF [2]; Patient 2, after discontinuing IM, none when they began IM) | congestive heart failure (patients with NSF [3]) | adverse effect related to IM (patients with NSF [3]; corrected by dialysis treatment) | staining for type I procollagen in skin biopsy (patients with NSF [4]; Patient 1, after 15 weeks of IM versus before) | fibrosis in skin biopsy (patients with NSF [4]; Patient 1, after 15 weeks of IM versus before, hematoxylin & eosin) | type I procollagen+ cells in the upper dermis (patients with NSF [4]; Patient 1, after IM treatment versus before) | skin thickening and joint mobility (patients with NSF [5])
1 | Cc1ccc(NC(=O)c2ccc(CN3CCN(C)CC3)cc2)cc1Nc1nccc(-c2cccnc2)n1 [imatinib mesylate] | 16 | 33 | 42 | 10 | 12 | 2 | 15 | 25 ° | 25 ° | 10 ° | knee joint flexion contractures developed that gradually progressed over time | Neither patient developed congestive heart failure | fluid retention | less staining for type I procollagen | less fibrosis | fewer | 
2 | CC(=O)CCCCn1c(=O)c2c(ncn2C)n(C)c1=O [pentoxyphyline] |  |  |  |  |  |  |  |  |  |  |  |  |  |  |  |  | Decreased skin thickening and improved joint mobility

Reference: patent US20110136768A1 (THE GENERAL HOSPITAL CORPORATION, priority 2008, published 2011)
